System: L1210
Assay: Compound was evaluated for cytotoxic activity on L1210 murine leukemia cells
Type: functional, cell-based
Conditions: Mus musculus

Q: For `CCC1(O)CC(=O)OCc2c1cc1n(c2=O)Cc2cc3ccccc3nc2-1` (stereo not drawn), which IC50 is on record?
A: 0.0162 µM

Q: With `CC[C@@]1(O)C(=O)OCc2c1cc1n(c2=O)Cc2cc3ccccc3nc2-1` [CAMPTOTHECIN] as the compound, how does the IC50 read?
A: 0.126 µM

Q: `CC[C@@]1(O)C(=O)OCc2c1cc1n(c2=O)Cc2cc3c(CN(C)C)c(O)ccc3nc2-1` [TOPOTECAN] was tested. Which IC50 did it give?
A: 0.601 µM

— ChEMBL document CHEMBL1130519, “BN 80245: An E-ring modified camptothecin with potent antiproliferative and topoisomerase I inhibitory activities” (Bioorg Med Chem Lett, 1997)
